Experimental data from patent US9433622B2, “Pyrimidine compounds useful in the treatment of diseases mediated by IKKE and/or TBK1 mechanisms” (DOMAINEX LIMITED, priority 2013, dated 2016).

Columns and labels:
TBK1 = TBK1 (Homo sapiens (Human), UniProt Q9UHD2); assay: Lanthascreen TR-FRET kinase inhibition assay, TBK1; assay type: biochemical; details: 20 μM ATP (apparent Km), 8 nM kinase, 2.5 h
Description: (§1) Compounds of the invention (synthesised as described below) were tested for activity against the IKKε and TBK-1 enzyme as follows:
(§2) Inhibitions studies were performed using a time-resolved fluorescence-based Lanthascreen™ assay. Phosphorylation of a fluorescein-labelled substrate peptide is measured using terbium-labeled phosphospecific antibodies.
(§3) Kinase inhibition assays (10 μL) were performed at 20° C. in 384-well plate format. […] The final reaction conditions contained 400 nM fluorescein-IkBα substrate ([…]), 20 μM ATP, 2 nM or 8 nM IKKε or TBK1 kinase respectively, and 3% DMSO in kinase assay buffer consisting of 50 mM HEPES (pH 7.5), 10 mM MgCl, 1 mM EGTA, 0.01% Brij-35.
(§4) Compound dilutions were prepared from 10 mM DMSO stocks by dilution into DMSO.
(§5) The kinase phosphorylation assay was initiated by the addition of the kinase and the reaction was allowed to proceed for 1 h or 2.5 h for IKKε and TBK-1 kinase respectively.

IKKε = IKKε (Homo sapiens (Human), UniProt Q14164); assay: Lanthascreen TR-FRET kinase inhibition assay, IKKε; assay type: biochemical; details: 20 μM ATP (apparent Km), 2 nM kinase, 1 h
Sequence of IKKε (Q14164 whole entry): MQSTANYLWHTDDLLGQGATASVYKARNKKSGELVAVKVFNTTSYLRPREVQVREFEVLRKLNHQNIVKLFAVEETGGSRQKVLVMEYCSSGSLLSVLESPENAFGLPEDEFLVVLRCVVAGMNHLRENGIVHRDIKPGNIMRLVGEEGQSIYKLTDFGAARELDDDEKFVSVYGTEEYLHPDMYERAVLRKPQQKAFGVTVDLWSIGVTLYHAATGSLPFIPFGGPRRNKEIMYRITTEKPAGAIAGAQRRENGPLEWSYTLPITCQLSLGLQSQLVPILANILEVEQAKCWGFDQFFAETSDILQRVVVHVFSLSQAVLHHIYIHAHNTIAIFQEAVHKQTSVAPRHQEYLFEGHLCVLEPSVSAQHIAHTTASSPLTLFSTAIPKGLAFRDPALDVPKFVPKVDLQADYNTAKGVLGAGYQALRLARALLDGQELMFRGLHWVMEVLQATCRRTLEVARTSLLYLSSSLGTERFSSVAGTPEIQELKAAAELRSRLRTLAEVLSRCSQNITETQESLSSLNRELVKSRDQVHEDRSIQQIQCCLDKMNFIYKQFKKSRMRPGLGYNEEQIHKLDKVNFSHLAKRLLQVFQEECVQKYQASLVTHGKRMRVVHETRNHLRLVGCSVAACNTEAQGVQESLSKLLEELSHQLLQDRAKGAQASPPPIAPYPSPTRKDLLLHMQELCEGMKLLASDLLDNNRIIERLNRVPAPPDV
Description: as §1, §2, §3, §4, §5

Sequence of TBK1 (Q9UHD2 whole entry): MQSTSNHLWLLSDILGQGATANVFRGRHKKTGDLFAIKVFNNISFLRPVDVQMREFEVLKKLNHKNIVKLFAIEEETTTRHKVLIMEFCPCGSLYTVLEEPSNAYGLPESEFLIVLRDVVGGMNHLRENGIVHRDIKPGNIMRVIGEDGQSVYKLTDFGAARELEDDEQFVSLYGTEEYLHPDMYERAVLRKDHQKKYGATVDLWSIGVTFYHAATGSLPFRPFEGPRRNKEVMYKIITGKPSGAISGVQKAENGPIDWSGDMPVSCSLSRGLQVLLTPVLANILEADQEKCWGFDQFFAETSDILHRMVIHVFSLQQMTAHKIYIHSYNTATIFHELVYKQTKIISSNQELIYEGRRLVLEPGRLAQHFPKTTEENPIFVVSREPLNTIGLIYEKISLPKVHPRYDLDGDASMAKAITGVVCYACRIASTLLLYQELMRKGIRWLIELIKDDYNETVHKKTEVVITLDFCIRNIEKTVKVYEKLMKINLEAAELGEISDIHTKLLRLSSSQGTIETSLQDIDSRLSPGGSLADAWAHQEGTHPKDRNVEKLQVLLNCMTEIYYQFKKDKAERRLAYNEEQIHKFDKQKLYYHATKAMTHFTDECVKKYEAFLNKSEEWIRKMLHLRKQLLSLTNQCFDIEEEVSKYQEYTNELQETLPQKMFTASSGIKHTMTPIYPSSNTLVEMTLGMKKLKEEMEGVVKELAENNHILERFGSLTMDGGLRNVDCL

| IC50 (TBK1) | IC50 (IKKε) | SMILES |
| --- | --- | --- |
| < 30 nM | < 30 nM | N#Cc1cc(-c2ccnc(Nc3cnn(CCO)c3)n2)cnc1N1CC[C@H](F)C1 [DMX-51, 2-((S)-3-Fluoro-pyrrolidin-1-yl)-5-{2-[1-(2-hydroxy-ethyl)-1H-pyrazol-4-ylamino]-pyrimidin-4-yl}-nicotinonitrile] |
| < 1000 nM | < 1000 nM | CN(C(=O)CN1CCOCC1)c1ccc(Nc2nccc(-c3cnc(N4CC[C@H](O)C4)c(C#N)c3)n2)cn1 [DMX-75, N-(5-{4-[5-Cyano-6-((S)-3-hydroxy-pyrrolidin-1-yl)-pyridin-3-yl]-pyrimidin-2-ylamino}-pyridin-2-yl)-N-methyl-2-morpholin-4-yl-acetamide] |
| < 30 nM | < 30 nM | N#Cc1cc(-c2ccnc(Nc3ccc(NC(=O)CN4CCOCC4)nc3)n2)cnc1N1CC[C@H](F)C1 [DMX-17, N-(5-{4-[5-Cyano-6-((S)-3-fluoro-pyrrolidin-1-yl)-pyridin-3-yl]-pyrimidin-2-ylamino}-pyridin-2-yl)-2-morpholin-4-yl-acetamide] |
| < 30 nM | < 15 nM | N#Cc1cc(-c2ccnc(Nc3ccc(NCCN4CCOCC4)nc3)n2)cnc1N1CC[C@H](F)C1 [DMX-67, 2-((S)-3-Fluoro-pyrrolidin-1-yl)-5-{2-[6-(2-morpholin-4-yl-ethylamino)-pyridin-3-ylamino]-pyrimidin-4-yl}-nicotinonitrile] |
| < 100 nM | < 100 nM | N#Cc1cc(-c2ccnc(Nc3ccc(OCCN4CC[C@H](F)C4)nc3)n2)cnc1N1CC[C@H](F)C1 [DMX-70, 2-((S)-3-Fluoro-pyrrolidin-1-yl)-5-(2-{6-[2-((S)-3-fluoro-pyrrolidin-1-yl)-ethoxy]-pyridin-3-ylamino}-pyrimidin-4-yl)-nicotinonitrile] |
| < 1000 nM | < 1000 nM | N#Cc1cc(-c2ccnc(Nc3ccc(CN4CCOCC4)nc3)n2)cnc1N1CCNC(=O)CC1 [DMX-133, 5-[2-(6-Morpholin-4-yImethyl-pyridin-3-ylamino)-pyrimidin-4-yl]-2-(5-oxo-[1,4]diazepan-1-yl)-nicotinonitrile] |
| < 15 nM | < 15 nM | CN1Cc2ccc(Nc3nccc(-c4cnc(N5CC[C@H](F)C5)c(C#N)c4)n3)cc2C1 [DMX-76, 2-((S)-3-Fluoro-pyrrolidin-1-yl)-5-[2-(2-methyl-2,3-dihydro-1H-isoindol-5-ylamino)-pyrimidin-4-yl]-nicotinonitrile] |
| < 100 nM | < 100 nM | N#Cc1cc(-c2ccnc(Nc3cnc(N4CCOCC4)nc3)n2)cnc1N1CC[C@H](F)C1 [DMX-20, 2-((S)-3-Fluoro-pyrrolidin-1-yl)-5-[2-(2-morpholin-4-yl-pyrimidin-5-ylamino)-pyrimidin-4-yl]-nicotinonitrile] |
| < 100 nM | < 100 nM | N#Cc1cc(-c2ccnc(Nc3ccc(CN4CCOCC4)nc3)n2)cnc1N1CCC(CC(N)=O)C1 (centres unmarked) [DMX-158, 2-(1-{3-Cyano-5-[2-(6-morpholin-4-ylmethyl-pyridin-3-ylamino)-pyrimidin-4-yl]-pyridin-2-yl}-pyrrolidin-3-yl)-acetamide] |
| < 30 nM | < 30 nM | COC1CN(Cc2ccc(Nc3nccc(-c4cnc(N5CC[C@H](F)C5)c(C#N)c4)n3)cn2)C1 [DMX-83, 2-((S)-3-Fluoro-pyrrolidin-1-yl)-5-{2-[6-(3-methoxy-azetidin-1-ylmethyl)-pyridin-3-ylamino]-pyrimidin-4-yl}-nicotinonitrile] |
| < 15 nM | < 30 nM | CC(c1ccc(Nc2nccc(-c3cnc(N4CC[C@H](F)C4)c(C#N)c3)n2)cn1)N1CCOCC1 (stereo partly drawn) [DMX-96, 2-((S)-3-Fluoro-pyrrolidin-1-yl)-5-{2-[6-(1-morpholin-4-yl-ethyl)-pyridin-3-ylamino]-pyrimidin-4-yl}-nicotinonitrile] |

The remaining lines, values behind:

| SMILES | IC50 (TBK1) | IC50 (IKKε) |
| --- | --- | --- |
| CC(NCc1ccccc1)C(=O)Nc1ccc(Nc2nccc(-c3cnc(N4CC[C@H](F)C4)c(C#N)c3)n2)cn1 (stereo partly drawn) [DMX-55, 2-Benzylamino-N-(5-{4-[5-cyano-6-((S)-3-fluoro-pyrrolidin-1-yl)-pyridin-3-yl]-pyrimidin-2-ylamino}-pyridin-2-yl)-propionamide] | < 30 nM | < 100 nM |
| N#Cc1cc(-c2ccnc(Nc3cnn(CCO)c3)n2)cnc1N1C2CCC1COC2 [DMX-46, 5-{2-[1-(2-Hydroxy-ethyl)-1H-pyrazol-4-ylamino]-pyrimidin-4-yl}-2-(3-oxa-8-aza-bicyclo[3.2.1]oct-8-yl)-nicotinonitrile] | < 100 nM | < 1000 nM |
| N#Cc1cc(-c2ccnc(Nc3cccc(C(N)=O)c3)n2)cnc1N1CCCC1 [DMX-2, 3-[4-(5-Cyano-6-pyrrolidin-1-yl-pyridin-3-yl)-pyrimidin-2-ylamino]-benzamide] | < 30 nM | < 30 nM |
| Cn1cc(Nc2nccc(-c3cnc(N4CC[C@H](O)C4)c(C#N)c3)n2)cn1 [DMX-16, 2-((S)-3-Hydroxy-pyrrolidin-1-yl)-5-[2-(1-methyl-1H-pyrazol-4-ylamino)-pyrimidin-4-yl]-nicotinonitrile] | < 100 nM | < 100 nM |
| N#Cc1nc(-c2ccnc(Nc3ccc(NC(=O)CN4CC[C@H](F)C4)nc3)n2)ccc1N1CC[C@H](F)C1 [DMX-145, N-(5-{4-[6-Cyano-5-((S)-3-fluoro-pyrrolidin-1-yl)-pyridin-2-yl]-pyrimidin-2-ylamino}-pyridin-2-yl)-2-((S)-3-fluoro-pyrrolidin-1-yl)-acetamide] | < 30 nM | < 30 nM |
| COCCN(C)CC(=O)Nc1ccc(Nc2nccc(-c3cnc(N4CC[C@H](F)C4)c(C#N)c3)n2)cn1 [DMX-21, N-(5-{4-[5-Cyano-6-((S)-3-fluoro-pyrrolidin-1-yl)-pyridin-3-yl]-pyrimidin-2-ylamino}-pyridin-2-yl)-2-[(2-methoxy-ethyl)-methyl-amino]-acetamide] | < 30 nM | < 30 nM |
| COCCNCc1ccc(Nc2nccc(-c3cnc(N4CC[C@H](F)C4)c(C#N)c3)n2)cn1 [DMX-77, 2-((S)-3-Fluoro-pyrrolidin-1-yl)-5-(2-{6-[(2-methoxy-ethylamino)-methyl]-pyridin-3-ylamino}-pyrimidin-4-yl)-nicotinonitrile] | < 100 nM | < 100 nM |
| N#Cc1nc(-c2ccnc(Nc3ccc(NC(=O)CN4CCOCC4)nc3)n2)ccc1N1CCC2(COC2)C1 [DMX-167, N-(5-{4-[6-Cyano-5-(2-oxa-6-aza-spiro[3.4]oct-6-yl)-pyridin-2-yl]-pyrimidin-2-ylamino}-pyridin-2-yl)-2-morpholin-4-yl-acetamide] | < 100 nM | < 30 nM |
| N#Cc1nc(-c2nc(Nc3ccc(N4CCOCC4)cc3)ncc2F)ccc1N1CC[C@H](F)C1 [DMX-153, 6-[5-Fluoro-2-(4-morpholin-4-yl-phenylamino)-pyrimidin-4-yl]-3-((S)-3-fluoro-pyrrolidin-1-yl)-pyridine-2-carbonitrile] | < 15 nM | < 15 nM |
| CN1CCC(NC(=O)c2cccc(Nc3nccc(-c4cnc(N[C@@H]5CCOC5)c(C#N)c4)n3)c2)CC1 [DMX-115, 3-(4-{5-Cyano-6-[(R)-(tetrahydro-furan-3-yl)amino]-pyridin-3-yl}-pyrimidin-2-ylamino)-N-(1-methyl-piperidin-4-yl)-benzamide] | < 1000 nM | < 1000 nM |
| CN(CC1CCOC1)c1ncc(-c2ccnc(Nc3ccc(CN4CCOCC4)nc3)n2)cc1C#N (centres unmarked) [DMX-137, 2-[Methyl-(tetrahydro-furan-3-ylmethyl)-amino]-5-[2-(6-morpholin-4-ylmethyl-pyridin-3-ylamino)-pyrimidin-4-yl]-nicotinonitrile] | < 1000 nM | < 1000 nM |
| COCCNc1cc(Nc2ncc(F)c(-c3cnc(N4CCCOCC4)c(C#N)c3)n2)ccn1 [DMX-95, 5-{5-Fluoro-2-[2-(2-methoxy-ethylamino)-pyridin-4-ylamino]-pyrimidin-4-yl}-2-[1,4]oxazepan-4-yl-nicotinonitrile] | < 100 nM | < 1000 nM |
| CN1CCN(c2ccc(Nc3nccc(-c4cnc(N5CCCC5)c(C#N)c4)n3)cn2)CC1 [DMX-3, 5-{2-[6-(4-Methyl-piperazin-1-yl)-pyridin-3-ylamino]-pyrimidin-4-yl}-2-pyrrolidin-1-yl-nicotinonitrile] | < 15 nM | < 15 nM |
| COCCNCc1ccc(Nc2nccc(-c3ccc(N4CC[C@H](F)C4)c(C#N)n3)n2)cn1 [DMX-157, 3-((S)-3-Fluoro-pyrrolidin-1-yl)-6-(2-{6-[(2-methoxy-ethylamino)-methyl]-pyridin-3-ylamino}-pyrimidin-4-yl)-pyridine-2-carbonitrile] | < 30 nM | < 100 nM |
| N#Cc1cc(-c2ccnc(Nc3ccc(C(=O)NCCO)cc3)n2)cnc1N1CC[C@H](F)C1 [DMX-48, 4-{4-[5-Cyano-6-((S)-3-fluoro-pyrrolidin-1-yl)-pyridin-3-yl]-pyrimidin-2-ylamino}-N-(2-hydroxy-ethyl)-benzamide] | < 15 nM | < 15 nM |
| N#Cc1cc(-c2nc(Nc3ccc(NC(=O)CN4CCOCC4)nc3)ncc2F)cnc1N1CCCOCC1 [DMX-86, N-{5-[4-(5-Cyano-6-[1,4]oxazepan-4-yl-pyridin-3-yl)-5-fluoro-pyrimidin-2-ylamino]-pyridin-2-yl}-2-morpholin-4-yl-acetamide] | < 100 nM | < 1000 nM |
| COCCN(C)Cc1ccc(Nc2nccc(-c3cnc(N4CC[C@H](F)C4)c(C#N)c3)n2)cn1 [DMX-82, 2-((S)-3-Fluoro-pyrrolidin-1-yl)-5-[2-(6-{[(2-methoxy-ethyl)-methyl-amino]-methyl}-pyridin-3-ylamino)-pyrimidin-4-yl]-nicotinonitrile] | < 100 nM | < 100 nM |
